Experimental data from patent US20140349297A1, “FLUORESCENT DYES BASED ON ACRIDINE AND ACRIDINIUM DERIVATIVES” (Almac Sciences (Scotland) Limited, priority 2011, published 2014).
“And” between values parts separate entries of the source, which are not always exact repeats. Equal entries are not always repeated. Structures can show the parent of a compound that is named as a salt.

Assays:
[1] = Fluorescence lifetimes of acridine derivatives by TCSPC (Table 1); type: physicochemical; conditions: excitation 405 nm
Description: Fluorescence lifetimes were determined by time-correlated single photon counting (TCSPC) acquisition using an Edinburgh Instruments Nanotaurus fluorescence lifetime platereader, using excitation laser 405 nm and either a 438 nm band pass, 450 nm band pass or 473 nm long pass emission filter for detection.

[2] = Fluorescence analysis of 9,10-dimethylacridin-10-ium methyl sulfate (lifetime decay); type: physicochemical
Description: Measurements were performed in 10 mM PBS pH 7.4, excitation wavelength 350 nm and emission wavelength 490 nm for steady state, and excitation wavelength 405 nm and emission wavelength 473 nm long pass filter for fluorescence lifetime;
Steady state measurements were performed on an Edinburgh Instruments FLS920 steady state fluorimeter, with excitation wavelength of 350 nm and emission wavelength of 490 nm. Fluorescence lifetimes were determined by time-correlated single photon counting (TCSPC) acquisition using an Edinburgh Instruments Nanotaurus fluorescence lifetime platereader, using excitation laser 405 nm and a 473 nm long pass emission filter for detection.
The fluorescence excitation and emission spectra were measured at 1 μM 9,10-dimethylacridin-10-ium methyl sulfate concentration in phosphate buffered saline (PBS) solution pH 7.4. The fluorescence excitation and emission spectra, and fluorescence lifetime decay curve are shown in FIG. 1(a) and FIG. 1(b) respectively. 9,10-Dimethylacridin-10-ium methyl sulfate has an advantageously long fluorescence lifetime of circa 25-30 ns. In addition, the magnitude of the fluorescence lifetime was maintained across the three buffer systems tested (see Table 1, entry 6).

[3] = pH stability of fluorescence lifetime; type: physicochemical; conditions: 1 μM in 20 mM sodium phosphate buffer
Description: 1 μM solutions of 9,10-dimethylacridin-10-ium methyl sulfate in 20 mM sodium phosphate buffer were prepared using 0.2 M monobasic sodium phosphate and 0.2 M dibasic sodium phosphate buffer mixtures, 0.1 M HCl solution was used to adust the pH to <6 and 0.1 M NaOH solution was used to adjust the pH to >8;
An important criteria of fluorescence dyes suitable for use in biochemical and cell-based assays is the advantageousness of the fluorescence lifetime being independent of pH in the physiological range 5 to 9.

[4] = Fluorescence emission profile as a function of pH; type: physicochemical; conditions: excitation 405 nm
Description: The fluorescence emission profile was measured as a function of pH upon excitation at 405 nm (FIG. 3).

[5] = reported, Tanaka et al. 2001; cited from earlier work
recombinant Lck kinase = target: T1, recombinant Lck kinase (Homo sapiens, UniProt P06239); type: biochemical; conditions: Lck 3.6 mU/well, 1 μM LLD-EPEGIYGVLF substrate; read-out: ATP Km
T1 construct: purchased EnzoLifeSciences
T1 sequence (P06239 whole entry, species assumed): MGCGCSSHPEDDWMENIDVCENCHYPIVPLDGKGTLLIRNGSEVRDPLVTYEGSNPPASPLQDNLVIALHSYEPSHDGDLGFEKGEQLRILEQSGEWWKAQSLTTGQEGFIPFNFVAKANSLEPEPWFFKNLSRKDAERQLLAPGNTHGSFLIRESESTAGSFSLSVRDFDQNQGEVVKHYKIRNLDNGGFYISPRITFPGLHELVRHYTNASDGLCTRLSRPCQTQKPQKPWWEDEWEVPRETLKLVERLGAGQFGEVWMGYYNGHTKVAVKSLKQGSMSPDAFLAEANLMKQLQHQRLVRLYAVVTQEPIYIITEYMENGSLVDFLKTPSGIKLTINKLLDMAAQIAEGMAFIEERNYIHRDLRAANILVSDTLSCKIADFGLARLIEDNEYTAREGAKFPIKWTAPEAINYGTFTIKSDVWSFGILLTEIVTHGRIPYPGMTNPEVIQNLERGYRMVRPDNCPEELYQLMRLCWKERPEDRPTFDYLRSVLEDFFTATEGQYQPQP
Description: Enzyme: Lck (p56Ick) (EnzoLifeSciences, 18 U/m1), 3.6 mU/well
Enzyme (3.6 mU in 5 μl buffer A) was then added to each well. […] The average lifetime values were converted to pmol phosphopeptide from a standard curve and plots of initial rates of reaction dependent on ATP concentration were used to determine the ATP Km value by non-linear regression fitting using GraphPad Prism (see FIG. 10).

Fluorescence Lifetime ([1]; 1 μM in 50 mM AcOH solution)	Fluorescence Lifetime ([1]; 1 μM in PBS)	Fluorescence Lifetime ([1]; 1 μM in water)	fluorescence lifetime (decay curve, FIG. 1b) ([2]; 10 mM PBS pH 7.4, excitation 405 nm, 473 nm long pass emission filter)	Fluorescence Lifetime ([2]; circa, maintained across the three buffer systems tested)	fluorescence lifetime as a function of pH [3]	emission maximum ([4]; solutions >pH 10)	emission maximum ([4]; solutions at pH 3 to 10)	Compound	pKa of methyl protons at the 9-position [5]	Km (recombinant Lck kinase)
29.1 ns	11.7 ns	29.1 ns	–	–	–	–	–	Cc1c2ccccc2nc2ccccc12 [Entry 4]	–	–
15.6 ns	15.6 ns	15.7 ns	–	–	–	–	–	Nc1c2ccccc2nc2ccccc12 [Entry 1]	–	–
29.4 ns	18.8 ns	10.5 ns	–	–	–	–	–	c1ccc2nc3ccccc3cc2c1 [Entry 3]	–	–
29.8 ns	26.2 ns	30.0 ns	26.2 ns	25-30 ns	stable across the pH range 3 to 10	425 nm and 450 nm	460 nm and 490 nm	Cc1c2ccccc2[n+](C)c2ccccc12 [Entry 6, 9,10-dimethylacridin-10-ium methyl sulfate]	akin to acetic acid	–
32.1 ns	31.9 ns	14.1 ns	–	–	–	–	–	C[n+]1c2ccccc2cc2ccccc21 [Entry 5]	–	–
–	–	–	–	–	–	–	–	Nc1ncnc2c1ncn2[C@@H]1O[C@H](COP(=O)(O)OP(=O)(O)OP(=O)(O)O)[C@@H](O)[C@H]1O [ATP]	–	36.4 µM
16.4 ns	16.3 ns	16.4 ns	–	–	–	–	–	C[n+]1c2ccccc2c(N)c2ccccc21.[Cl-] [Entry 2]	–	–
